Experimental data from ChEMBL document CHEMBL1141311, “Bioactive secondary metabolites from Boesenbergia pandurata of Myanmar and their preferential cytotoxicity against human pancreatic cancer PANC-1 cell line in nutrient-deprived medium” (2007).

Tested on: PANC-1
Test: Cytotoxicity against human PANC1 cells assessed as cell viability
Format: functional

SMILES	PC100
COc1cc(O)c(C(=O)[C@@H]2CC=C(C)[C@@H](CC=C(C)C)[C@H]2c2ccccc2)c(O)c1 [(-)-NICOLAIOIDESIN B]	2.5 µM
COc1cc(O)c2c(=O)cc(-c3ccccc3)oc2c1 [TECHTOCHRYSIN]	>256 µM
CC(C)=CCC/C(C)=C/Cc1c(O)cc2c(c1O)C(=O)C[C@@H](c1ccccc1)O2	8 µM
CC(C)=CC[C@@H]1C(C)=CC[C@@H](C(=O)c2c(O)cc(O)cc2O)[C@@H]1c1ccccc1	16 µM
CC(C)=CCCC1(C)C=Cc2c(cc3c(c2O)C(=O)C[C@@H](c2ccccc2)O3)O1 (stereo partly specified)	64 µM
COc1cc(O)cc(O)c1C(=O)[C@@H]1CC=C(C)[C@@H](CC=C(C)C)[C@H]1c1ccccc1 (racemic)	8 µM
COc1cc(O)cc2c1C(=O)C[C@@H](c1ccccc1)O2	>256 µM
O=C1C[C@@H](c2ccccc2)Oc2cc(O)cc(O)c21 [PINOCEMBRIN]	64 µM
COc1cc(O)cc2c1C(=O)C[C@@H](c1ccc(O)cc1)O2	>256 µM
COc1cc(O)cc(O)c1C(=O)[C@@H]1[C@H](CC=C(C)C)C(C)=CC[C@H]1c1ccc(O)cc1 (racemic)	>256 µM
COc1cc(O)c(C(=O)[C@@H]2[C@H](CC=C(C)C)C(C)=CC[C@H]2c2ccccc2)c(OC)c1 (racemic)	64 µM
COc1cc(O)c(C(=O)[C@@H]2[C@H](CC=C(C)C)C(C)=CC[C@H]2c2ccccc2)c(O)c1 [PANDURATIN A]	2.5 µM
CC(C)=CCC/C(C)=C/COC(=O)c1c(O)cc(O)cc1CCc1ccccc1	16 µM
COc1cc(C[C@H]2C(=O)OC[C@@H]2Cc2ccc(OC)c(OC)c2)ccc1O [ARCTIGENIN]	1 µM
COc1cc(/C=C/c2ccccc2)oc(=O)c1 [DESMETHOXYYANGONIN]	>256 µM
COc1cc(O)cc(O)c1C(=O)[C@@H]1[C@H](CC=C(C)C)C(C)=CC[C@H]1c1ccccc1	16 µM
COc1cc2c(c(O)c1C(=O)/C=C/c1ccccc1)C=CC(C)(CCC=C(C)C)O2 (stereo unspecified) [BOESENBERGIN B]	64 µM
COc1cc(O)c(C(=O)/C=C/c2ccc(O)cc2)c(OC)c1 [FLAVOKAWAIN C]	>256 µM
COc1cc(O)c2c(c1C/C=C(\C)CCC=C(C)C)O[C@@H](c1ccccc1)CC2=O	128 µM
COc1cc(O)c(C(=O)/C=C/c2ccccc2)c2c1C=CC(C)(CCC=C(C)C)O2 (stereo unspecified) [BOESENBERGIN A]	64 µM
COc1cc(O)c2c(c1)O[C@H](c1ccccc1)CC2=O [PINOSTROBIN]	>256 µM
COc1cc(O)cc(O)c1C(=O)/C=C/c1ccccc1 [CARDAMOMIN]	>256 µM
CC(=O)O[C@H]1C(=O)[C@@]2(C)[C@H]([C@H](OC(=O)c3ccccc3)[C@]3(O)C[C@H](OC(=O)[C@H](O)[C@@H](NC(=O)c4ccccc4)c4ccccc4)C(C)=C1C3(C)C)[C@]1(OC(C)=O)CO[C@@H]1C[C@@H]2O [PACLITAXEL]	>256 µM
COc1cc2c(c(O)c1C/C=C(\C)CCC=C(C)C)C(=O)C[C@@H](c1ccccc1)O2	128 µM
CC(C)=CC[C@@H]1C(C)=CC[C@@H](c2ccccc2)[C@@H]1C(=O)c1c(O)cc(O)cc1O [4-HYDROXYPANDURATIN A]	16 µM
COc1cc(O)c(C/C=C(\C)CCC=C(C)C)c(O)c1C(=O)/C=C/c1ccccc1	16 µM
